# Laboratory results taken from US12522615B2, “Macrocyclic compounds and derivatives as EGFR inhibitors” (Boehringer Ingelheim International GmbH, priority 2019, dated 2026).
# Read-outs that look alike come from different tables or passages of the source.
# Assays:
# [1] = tested on: Ba/F3 cells EGFR-indep. + IL-3; assay: Ba/F3 proliferation assay (CellTiter-Glo viability); type: cell-based, murine; conditions: Mus musculus, BaF3, 72 h
# Protocol: (§1) Plasmids containing EGFR mutants were obtained from GeneScript. To generate EGFR-dependent Ba/F3 models, Ba/F3 cells were transduced with retroviruses containing vectors that harbor EGFR isoforms. Platinum-E cells (Cell Biolabs) were used for retrovirus packaging. Retrovirus was added to Ba/F3 cells. To ensure infection, 4 μg/mL polybrene was added and cells were spinfected. Infection efficiency was confirmed by measuring GFP-positive cells using a cell analyzer. Cells with an infection efficiency of 10% to 20% were further cultivated and puromycin selection with 1 μg/mL was initiated. As a control, parental Ba/F3 cells were used to show selection status. Selection was considered successful when parental Ba/F3 cells cultures died. To evaluate the transforming potential of EGFR mutations, the growth medium was no longer supplemented with IL-3. Ba/F3 cells harboring the empty vector were used as a control. A switch from IL-3 to EGF was performed for Ba/F3 cells with the wildtype EGFR known for its dependency on EGF ligand. Approximately ten days before conducting the experiments, puromycin was left out. For proliferation assays (data in table 13), Ba/F3 cells were seeded into 96-well plates at 5×10^3 cells/100 μL in growth media. Compounds were added by using a HP D3000 Digital Dispenser. All treatments were performed in technical triplicates. Treated cells were incubated for 72 h at 37° C. with 5% CO2. CellTiter-Glo® Luminescent Cell Viability Assay (Promega) was performed and chemoluminescence was measured by using the multilabel Plate Reader VICTOR X4. The raw data were imported into and analyzed with the Boehringer Ingelheim proprietary software MegaLab (curve fitting based on the program PRISM, GraphPad Inc.).
# [2] = tested on: Ba/F3 cells driven by EGFR L858R C797S; assay: as above; type: cell-based, murine; conditions: Mus musculus, BaF3, 72 h
# Protocol: as §1
# [3] = tested on: Ba/F3 cells driven by EGFR L858R T790M C797S; assay: as above; type: cell-based, murine; conditions: Mus musculus, BaF3, 72 h
# Protocol: as §1
# [4] = tested on: Ba/F3 cells driven by EGFR L858R T790M; assay: as above; type: cell-based, murine; conditions: Mus musculus, BaF3, 72 h
# Protocol: as §1
# [5] = tested on: Ba/F3 cells driven by EGFR L858R; assay: as above; type: cell-based, murine; conditions: Mus musculus, BaF3, 72 h
# Protocol: as §1
# [6] = tested on: Ba/F3 cells driven by EGFR del19 C797S; assay: as above; type: cell-based, murine; conditions: Mus musculus, BaF3, 72 h
# Protocol: as §1
# [7] = tested on: Ba/F3 cells driven by EGFR del19 T790M C797S; assay: as above; type: cell-based, murine; conditions: Mus musculus, BaF3, 72 h
# Protocol: as §1
# [8] = tested on: Ba/F3 cells driven by EGFR del19 T790M; assay: as above; type: cell-based, murine; conditions: Mus musculus, BaF3, 72 h
# Protocol: as §1
# [9] = tested on: Ba/F3 cells driven by EGFR del19; assay: as above; type: cell-based, murine; conditions: Mus musculus, read-out: IC50 EGFR del19
# Protocol: as §1
# [10] = tested on: Ba/F3 cells driven by EGFR wt; assay: as above; type: cell-based, murine; conditions: Mus musculus, BaF3, 72 h
# Protocol: as §1
# [11] = target: EGFR del19 T790M C797S (Homo sapiens, UniProt P00533, C797S/T790M, form not given); assay: pEGFR assay: phosphorylation of EGFR at Tyr1068 in Ba/F3 cells (AlphaScreen Surefire); type: cell-based; conditions: 4 h
# EGFR del19 T790M C797S, sequence (P00533 25-1210 T790M/C797S limits assumed, form open): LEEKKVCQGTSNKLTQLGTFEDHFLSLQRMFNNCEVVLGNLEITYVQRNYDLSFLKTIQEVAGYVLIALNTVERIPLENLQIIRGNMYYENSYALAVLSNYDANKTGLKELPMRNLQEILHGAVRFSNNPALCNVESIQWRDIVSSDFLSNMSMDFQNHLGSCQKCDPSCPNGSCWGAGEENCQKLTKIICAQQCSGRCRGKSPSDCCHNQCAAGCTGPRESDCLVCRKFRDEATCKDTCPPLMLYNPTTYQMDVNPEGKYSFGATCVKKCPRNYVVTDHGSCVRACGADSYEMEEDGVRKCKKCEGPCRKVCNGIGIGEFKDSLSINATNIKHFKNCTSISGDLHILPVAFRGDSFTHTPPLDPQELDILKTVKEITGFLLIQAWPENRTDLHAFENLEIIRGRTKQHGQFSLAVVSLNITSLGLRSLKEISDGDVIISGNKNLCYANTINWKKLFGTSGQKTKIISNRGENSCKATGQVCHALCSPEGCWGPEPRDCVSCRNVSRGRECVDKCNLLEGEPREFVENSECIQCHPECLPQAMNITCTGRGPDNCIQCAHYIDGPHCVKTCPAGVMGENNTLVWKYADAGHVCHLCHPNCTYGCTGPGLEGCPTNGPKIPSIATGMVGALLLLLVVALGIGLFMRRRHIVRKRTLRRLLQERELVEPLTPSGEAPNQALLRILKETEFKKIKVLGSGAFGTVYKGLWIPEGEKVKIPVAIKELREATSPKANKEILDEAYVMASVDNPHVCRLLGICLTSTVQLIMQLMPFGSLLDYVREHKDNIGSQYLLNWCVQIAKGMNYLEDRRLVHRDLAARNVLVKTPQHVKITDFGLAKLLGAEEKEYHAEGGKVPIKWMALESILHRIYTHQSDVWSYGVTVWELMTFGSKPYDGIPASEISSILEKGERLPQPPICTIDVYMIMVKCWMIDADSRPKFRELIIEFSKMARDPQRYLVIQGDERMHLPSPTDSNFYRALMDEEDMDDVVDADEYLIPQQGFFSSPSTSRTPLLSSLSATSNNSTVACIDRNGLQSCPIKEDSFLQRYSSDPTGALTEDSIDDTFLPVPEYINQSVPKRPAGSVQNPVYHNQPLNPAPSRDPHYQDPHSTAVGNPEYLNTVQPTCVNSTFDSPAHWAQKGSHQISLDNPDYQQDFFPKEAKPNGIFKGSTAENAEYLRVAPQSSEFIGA
# Protocol: Transduced cells were selected using puromycin. Following selection, IL-3 was withdrawn and IL-3 independent cells cultured. p-EGFR Tyr1068 was determined using the AlphaScreen Surefire pEGF Receptor (Tyr1068) Assay (PerkinElmer, TGRERS). […] Subsequently, 60.000 cells/well in 60 μL were added. Cells were incubated with compound for 4 h at 37° C. […] The mixture was incubated at room temperature with shaking (700 rpm) for 20 min. After centrifugation, 4 μL of the lysate were transferred to Proxiplates. […] Plates were shaken for 1 min (1400 rpm) and incubated for 2 h at room temperature in the dark.
# [12] = target: EGFR (d746-750 T790M C797S) (Homo sapiens (Human), UniProt P00533, C797S/DEL746-750/T790M); assay: Biochemical EGFR inhibition assay (poly-GT substrate phosphorylation, TR-FRET LANCE Ultra); conditions: 5 μM ATP; read-out: Del_TM_CS (5 μM ATP)
# EGFR (d746-750 T790M C797S), sequence (P00533 other isoform, or with tags, fused parts or gaps T790M/C797S/del 1-694/del 746-750 limits assumed): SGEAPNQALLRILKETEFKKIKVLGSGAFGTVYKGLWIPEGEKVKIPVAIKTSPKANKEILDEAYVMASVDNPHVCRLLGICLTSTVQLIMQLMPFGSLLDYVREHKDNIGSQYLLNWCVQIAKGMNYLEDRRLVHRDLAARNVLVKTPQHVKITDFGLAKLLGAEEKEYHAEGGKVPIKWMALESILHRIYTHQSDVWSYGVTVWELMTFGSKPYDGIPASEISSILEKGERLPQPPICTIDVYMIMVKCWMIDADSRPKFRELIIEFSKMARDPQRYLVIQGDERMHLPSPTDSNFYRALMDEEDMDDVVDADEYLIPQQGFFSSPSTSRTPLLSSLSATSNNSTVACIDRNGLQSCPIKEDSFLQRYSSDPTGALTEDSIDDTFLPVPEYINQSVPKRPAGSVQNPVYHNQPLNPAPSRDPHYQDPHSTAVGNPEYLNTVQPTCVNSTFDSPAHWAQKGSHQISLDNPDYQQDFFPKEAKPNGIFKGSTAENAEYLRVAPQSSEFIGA
# Protocol: (§2) Initially, the inhibitory effect of compounds according to the invention is measured in biochemical assays which measure the phosphorylation activity of EGFR enzyme forms on poly-GT substrate in the presence of different concentrations of ATP (5 μM and 100 μM final assay concentration).
# (§3) The following enzyme forms of EGFR are representative examples that can be used in these assays at the given concentrations:
# Test compounds dissolved in DMSO are dispensed onto assay plates (Proxiplate 384 PLUS, white, PerkinElmer; 6008289) using an Access Labcyte Workstation with the Labcyte Echo 55x. […]
# 5 μL of EGFR enzyme form in assay buffer (50 mM HEPES pH 7.3, 10 mM MgCl2, 1 mM EGTA, 0.01% Tween 20, 2 mM DTT) are dispensed into columns 1-23, than 5 μL of ATP and ULight-poly-GT substrate (PerkinElmer; TRF0100-M) mix in assay buffer is added to all wells (final assay concentration of the ULight-poly-GT substrate 200 nM). […] After additional 60 minutes incubation at room temperature the signal is measured in a PerkinElmer Envision HTS Multilabel Reader using the TR-FRET LANCE Ultra specs of PerkinElmer (used wavelengths: excitation 320 nm, emission 1 665 nm, emission 2 615 nm). […] Negative and positive control values are used for normalization and IC50 values are calculated and analysed using a 4 parametric logistic model. […]
# [13] = target: EGFR (mutated) 695-1022, T790M, C797S, L858R (Homo sapiens (Human), UniProt P00533, C797S/L858R/T790M); assay: as above
# EGFR (mutated) 695-1022, T790M, C797S, L858R, sequence (P00533 695-1022 T790M/C797S/L858R): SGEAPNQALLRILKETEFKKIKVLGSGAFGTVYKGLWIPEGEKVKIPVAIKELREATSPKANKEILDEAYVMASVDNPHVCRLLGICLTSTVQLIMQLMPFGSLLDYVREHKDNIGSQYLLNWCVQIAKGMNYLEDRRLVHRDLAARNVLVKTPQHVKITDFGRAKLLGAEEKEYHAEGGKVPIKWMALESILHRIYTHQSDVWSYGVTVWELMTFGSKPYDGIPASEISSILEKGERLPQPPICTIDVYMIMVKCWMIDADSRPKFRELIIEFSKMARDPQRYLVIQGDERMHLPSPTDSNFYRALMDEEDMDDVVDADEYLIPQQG
# Protocol: as §2, §3
# (§4) For the chosen highest assay concentration of 100 μM, 150 nL of compound solution is transferred from a 10 mM DMSO compound stock solution. A series of eleven fivefold dilutions per compound is transferred to the assay plate, compound dilutions are tested in duplicates. DMSO is added as backfill to a total volume of 150 nL. The assay runs on a fully automated robotic system.
# (§5) 5 μL of EGFR enzyme form in assay buffer (50 mM HEPES pH 7.3, 10 mM MgCl2, 1 mM EGTA, 0.01% Tween 20, 2 mM DTT) are dispensed into columns 1-23, than 5 μL of ATP and ULight-poly-GT substrate (PerkinElmer; TRF0100-M) mix in assay buffer is added to all wells (final assay concentration of the ULight-poly-GT substrate 200 nM). Each of the different EGFR enzyme form assays is available at low ATP (final assay concentration 5 μM) and high ATP levels (final assay concentration 100 μM). After 90 minutes incubation at room temperature 5 μL EDTA (final assay concentration 50 mM) and LANCE Eu-anti-P-Tyr (PT66) antibody (PerkinElmer, AD0069) (final assay concentration 6 nM) mix are added to stop the reaction and start the binding of the antibody. […] Each plate contains 16 wells of a negative control (diluted DMSO instead of test compound; w EGFR enzyme form; column 23) and 16 wells of a positive control (diluted DMSO instead of test compound; w/o EGFR enzyme form; column 24). Negative and positive control values are used for normalization and IC50 values are calculated and analysed using a 4 parametric logistic model.
# (§6) These biochemical EGFR enzyme form compound dose-response assays quantify the kinase activity via phosphorylation of a tagged poly-GT substrate. The results of the assay are provided as IC50 values.
# [14] = target: EGFR wt (Homo sapiens (Human), UniProt P00533); assay: as above
# EGFR wt, sequence (P00533 25-1210): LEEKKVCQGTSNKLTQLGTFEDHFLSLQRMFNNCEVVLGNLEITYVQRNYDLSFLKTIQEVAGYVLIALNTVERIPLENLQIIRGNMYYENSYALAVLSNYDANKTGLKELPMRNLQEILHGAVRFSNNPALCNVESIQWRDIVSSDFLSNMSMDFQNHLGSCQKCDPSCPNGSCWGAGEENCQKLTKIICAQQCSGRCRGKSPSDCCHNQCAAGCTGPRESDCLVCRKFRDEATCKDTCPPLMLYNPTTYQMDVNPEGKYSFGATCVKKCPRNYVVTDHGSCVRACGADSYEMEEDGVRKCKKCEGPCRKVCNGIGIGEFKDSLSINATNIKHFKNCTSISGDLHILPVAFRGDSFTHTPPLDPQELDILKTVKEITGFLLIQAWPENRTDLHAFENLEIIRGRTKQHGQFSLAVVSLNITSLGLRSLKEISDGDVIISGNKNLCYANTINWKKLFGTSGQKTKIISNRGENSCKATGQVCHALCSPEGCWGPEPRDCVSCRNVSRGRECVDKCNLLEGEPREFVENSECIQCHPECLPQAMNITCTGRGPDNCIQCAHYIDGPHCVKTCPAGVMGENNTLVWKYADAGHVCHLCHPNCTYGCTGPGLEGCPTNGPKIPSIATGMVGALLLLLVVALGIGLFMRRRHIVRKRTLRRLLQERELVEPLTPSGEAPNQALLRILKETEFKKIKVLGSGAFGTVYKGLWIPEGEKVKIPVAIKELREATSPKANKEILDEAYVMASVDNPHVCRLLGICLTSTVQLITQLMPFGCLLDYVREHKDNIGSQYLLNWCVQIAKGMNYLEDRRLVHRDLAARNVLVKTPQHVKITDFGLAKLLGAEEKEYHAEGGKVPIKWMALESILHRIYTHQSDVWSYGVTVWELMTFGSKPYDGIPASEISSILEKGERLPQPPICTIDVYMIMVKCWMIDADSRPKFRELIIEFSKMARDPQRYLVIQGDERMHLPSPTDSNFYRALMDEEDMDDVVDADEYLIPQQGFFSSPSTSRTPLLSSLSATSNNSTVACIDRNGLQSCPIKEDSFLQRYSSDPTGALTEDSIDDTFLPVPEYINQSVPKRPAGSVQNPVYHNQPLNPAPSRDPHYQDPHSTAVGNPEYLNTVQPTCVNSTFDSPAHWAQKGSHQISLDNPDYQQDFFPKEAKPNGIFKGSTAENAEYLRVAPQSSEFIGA
# Protocol: as §2, §3, §4, §5, §6
# [15] = tested on: EGFR M+ NSCLC patients; conditions: EGFR M+ NSCLC patients treated in 1st line; cited from earlier work
# [16] = tested on: EGFR M+ T790M-positive patients; conditions: 2nd line, previously treated with earlier generation EGFR TKI; cited from earlier work
# [17] = 5 μM ATP, read-out: LR_TM_CS (5 μM ATP)
# [18] = 100 μM ATP, read-out: LR_TM_CS (100 μM ATP)
# [19] = 5 μM ATP, read-out: wt (5 μM ATP)
# [20] = 100 μM ATP, read-out: wt (100 μM ATP)
smiles,measurement,setting,value
Cc1cc2cc(n1)-c1cnn(C)c1OCCC[C@@H](C)CN1/C(=N/C2=O)Nc2ccc(CN3CCN(C)CC3)cc21 [Compound I-021],IC50,[1],1100 nM
same,IC50,[2],4 nM
same,IC50,[3],0.4 nM
same,IC50,[4],0.9 nM
same,IC50,[5],7 nM
same,IC50,[6],0.5 nM
same,IC50,[7],0.2 nM
same,IC50,[8],0.3 nM
same,IC50,"[9]; BaF3, viability, 72 h",1 nM
same,IC50,[10],190 nM
Cn1ncc2c1OCCCCCN1/C(=N/C(=O)c3cc(F)nc-2c3)Nc2ccccc21 [Compound I-037],IC50,[11],1.2 nM
same,IC50,[12],0.2 nM
same,IC50,[13]; [17],0.3 nM
same,IC50,[13]; [18],3 nM
same,IC50,[14]; [19],13 nM
same,IC50,[14]; [20],> 100000 nM
C[C@@H]1CCCOc2ccccc2-c2cc(ccn2)C(=O)N=C2Nc3ccccc3N2C1 [Compound I-046],IC50,[11],4.1 nM
same,IC50,[12],1.3 nM
same,IC50,[13]; [17],1.8 nM
same,IC50,[13]; [18],16 nM
same,IC50,[14]; [19],18 nM
same,IC50,[14]; [20],> 100000 nM
"CC(=O)N1CCCCC(n2/c(=N/C(=O)c3ccnc(C)c3)[nH]c3cccc(Cl)c32)C1 (centres unmarked) [Exp. WO 2014/121942, reference compound]",IC50,[1],3500 nM
same,IC50,[3],2200 nM
same,IC50,[7],770 nM
same,IC50,[10],2800 nM
COc1cc2ncnc(Nc3ccc(F)c(Cl)c3)c2cc1NC(=O)/C=C/CN1CCCCC1 [dacomitinib],IC50,[2],6.9 nM
same,IC50,[5],0.03 nM
same,IC50,[6],1.6 nM
same,IC50,"[9]; BaF3, viability, 72 h",0.01 nM
same,IC50,[10],0.64 nM
C#Cc1cccc(Nc2ncnc3cc(OCCOC)c(OCCOC)cc23)c1 [erlotinib],objective response rate,[15],60-85%
Cc1cc(C(=O)Nc2nc3cccc(Cl)c3n2[C@@H]2CCCCN(C(=O)/C=C/CN(C)C)C2)ccn1 [nazartinib],IC50,[1],> 5000 nM
same,IC50,[5],5.1 nM
same,IC50,"[9]; BaF3, viability, 72 h",1.1 nM
C=CC(=O)Nc1cc(Nc2nccc(-c3cn(C)c4ccccc34)n2)c(OC)cc1N(C)CCN(C)C [osimertinib],IC50,"[9]; BaF3, 72 h",0.5 nM
same,objective response rate,[15],60-85%
same,patients that respond to treatment,[16],Approximately 70%
